According to patent US8202885B2, “Bridged six-membered ring compounds” (Actelion Pharmaceuticals Ltd., priority 2007, dated 2012):

test system: human Cav3.1 Cav3.2 or Cav3.3 channel; experiment: In vitro assay T channel (FLIPR calcium fluorescence); format: cell-based; details: HEK293 cells expressing human Cav3.1, Cav3.2 or Cav3.3; 10 mM Ca2+-induced fluo-4 fluorescence; determined up to 10 μM; read-out: T channel antagonistic activity IC50
Protocol: The T channel antagonistic activity (IC50 values) of the compounds of formula (I) is determined in accordance with the following experimental method and data are shown in Table 1.
Human embryonic kidney (HEK293) cells expressing the human Cav3.1 Cav3.2 or Cav3.3 channel, respectively, are grown in culture medium (DMEM containing 10% heat-inactivated fetal calf serum (FCS), 100 U/ml penicillin, 100 μg/ml streptomycin and 1 mg/ml G418). The cells are seeded at 20.000 cells/well into 384-well black clear bottom sterile plates (poly-L-lysine-coated, Becton Dickinson). The seeded plates are incubated overnight at 37° C. in 5% CO2. The Ca^2+ solution is prepared as 100 mM stock solution in 100 mM tetraethylammoniumchloride (TEA-chloride), 50 mM HEPES, 2.5 mM CaCl2, 5 mM KCl, 1 mM MgCl2, adjusted to pH 7.2 with TEA-hydroxide, for use in the assay at a final concentration of 10 mM. Antagonists are prepared as 10 mM stock solutions in DMSO, then diluted in 384 w plates first in DMSO, then in 100 mM TEA-chloride, 50 mM HEPES, 2.5 mM CaCl2, 5 mM KCl, 1 mM MgCl2, adjusted to pH 7.2 with TEA-hydroxide, to obtain 9× stocks. On the day of the assay, 25 μl of staining buffer (HBSS containing 20 mM HEPES, 0.375 g/l NaHCO3 and 3 μM of the fluorescent calcium indicator fluo-4 AM (1 mM stock solution in DMSO, containing 10% pluronic) is added to each well of the seeded plate. The 384-well cell-plates are incubated for 60 min at 37° C. in 5% CO2 followed by washing with 2×50 μl per well using HBSS containing 0.1% BSA, 20 mM HEPES, 0.375 g/l NaHCO3, leaving 50 […] of this buffer for equilibration at room temperature (30-60 min). Within the Fluorescent Imaging Plate Reader (FLIPR, Molecular Devices), antagonists are added to the plate in a volume of 6.25 μl/well, incubated for 3 min, and finally 6.25 […] of Ca^2+ solution is added. Fluorescence is measured for each well at 2 second intervals for 8 minutes, and the area under the curve of each fluorescence peak is compared to the area of the fluorescence peak induced by 10 mM Ca^2+ with vehicle in place of antagonist. For each antagonist, the IC50 value (the concentration (in nM) of compound needed to inhibit 50% of the Ca^2+-induced fluorescence response) up to 10 μM is determined.

Row | IC50 [µM] | Compound
1 | 4.51 | COc1ccc2[nH]c(CCCN(C)CC[C@]3(OC(=O)C(C)C)C[C@H]4CC[C@@H]3C=C4c3ccccc3)nc2c1 (relative stereo) [Example 29A, rac-Isobutyric acid (1R*,2R*,4R*)-2-(2-{[3-(5-methoxy-1H-benzoimidazol-2-yl)-propyl]-methyl-amino}-ethyl)-5-phenyl-bicyclo[2.2.2]oct-5-en-2-yl ester]
2 | 4.01 | COc1ccccc1C1=C[C@H]2CC[C@@H]1C[C@]2(CCN(C)CCCc1nc2ccccc2[nH]1)OC(=O)C(C)C (relative stereo) [Example 23A, rac-Isobutyric acid (1R*,2R*,4R*)-2-(2-{[3-(1H-benzoimidazol-2-yl)-propyl]-methyl-amino}-ethyl)-5-(2-methoxy-phenyl)-bicyclo[2.2.2]oct-5-en-2-yl ester]
3 | 2.63 | CO[C@@]1(c2ccccc2)C[C@H]2CC[C@@H]1C[C@@]2(CCN(C)CCCc1nc2ccccc2[nH]1)OC(=O)C(C)C (relative stereo) [Example 77A, rac-Isobutyric acid (1R*,2S*,4R*,5S*)-2-(2-{[3-(1H-benzoimidazol-2-yl)-propyl]-methyl-amino}-ethyl)-5-methoxy-5-phenyl-bicyclo[2.2.2]oct-2-yl ester]
4 | > 10 | CN(CCCc1nc2ccccc2[nH]1)CC[C@]1(O)C[C@H]2CC[C@@H]1C=C2c1cccnc1 (relative stereo) [Example 9, rac-(1R*,2R*,4R*)-2-(2-{[3-(1H-Benzoimidazol-2-yl)-propyl]-methyl-amino}-ethyl)-5-pyridin-3-yl-bicyclo[2.2.2]oct-5-en-2-ol]
5 | 3.71 | CN(CCCc1nc2ccccc2[nH]1)CC[C@]1(O)C[C@H]2CC[C@@H]1C[C@]21OCc2ccccc21 (relative stereo) [Example 80, rac-(1R*,2S*,4R*,5R*)-5-(2-{[3-(1H-Benzoimidazol-2-yl)-propyl]-methyl-amino}-ethyl)-3′H-spiro(bicyclo[2.2.2]octane-2,1′-isobenzofuran)-5-ol]
6 | > 10 | CN(CCCc1cccnc1)CC[C@]1(O)C[C@H]2CC[C@@H]1C=C2c1ccccc1 (relative stereo) [Example 46, rac-(1R*,2R*,4R*)-2-{2-[Methyl-(3-pyridin-3-yl-propyl)-amino]-ethyl}-5-phenyl-bicyclo[2.2.2]oct-5-en-2-ol]
7 | 8.63 | CC(C)C(=O)O[C@@]1(CCN(C)CCCc2ccccc2)C[C@H]2CC[C@@H]1C=C2c1ccccc1 (relative stereo) [Example 15A, rac-Isobutyric acid (1R*,2R*,4R*)-2-{2-[methyl-(3-phenyl-propyl)-amino]-ethyl}-5-phenyl-bicyclo[2.2.2]oct-5-en-2-yl ester]
8 | > 10 | COC(=O)c1ccc2[nH]c(CCCN(C)CC[C@]3(O)C[C@H]4CC[C@@H]3C=C4c3ccccc3)nc2c1 (relative stereo) [Example 20, rac-2-(3-{[2-((1R*,2R*,4R*)-2-Hydroxy-5-phenyl-bicyclo[2.2.2]oct-5-en-2-yl)-ethyl]-methyl-amino}-propyl)-1H-benzoimidazole-5-carboxylic acid methyl ester]
9 | 0.469 | CC(C)C(=O)O[C@@]1(CCN(C)CCCc2nc3c(C(F)(F)F)cc(C(F)(F)F)cc3[nH]2)C[C@H]2CC[C@@H]1C=C2c1ccccc1 (relative stereo) [Example 62A, rac-Isobutyric acid (1R*,2R*,4R*)-2-(2-{[3-(4,6-bis-trifluoromethyl-1H-benzoimidazol-2-yl)-propyl]-methyl-amino}-ethyl)-5-phenyl-bicyclo[2.2.2]oct-5-en-2-yl ester]
10 | > 10 | COc1ccc(C2=CC3CCC2CC3(O)CCN(C)CCCc2nc3ccccc3[nH]2)cc1 (racemic) [Example 22, rac-(1R*,2R*,4R*)-2-(2-{[3-(1H-Benzoimidazol-2-yl)-propyl]-methyl-amino}-ethyl)-5-(4-methoxy-phenyl)-2-yl-bicyclo[2.2.2]oct-5-en-2-ol]
11 | 1.33 | COc1cccc2[nH]c(CCCN(C)CC[C@]3(O)C[C@H]4CCC[C@@H]3C=C4c3ccccc3)nc12 (relative stereo) [Example 36, rac-(1R*,5R*,6R*)-6-(2-{[3-(4-Methoxy-1H-benzoimidazol-2-yl)-propyl]-methyl-amino}-ethyl)-8-phenyl-bicyclo[3.2.2]non-8-en-6-ol]
12 | 5.69 | CCCC1=C(C)[C@H]2CC[C@@H]1C[C@@]2(O)CCN(C)CCCc1nc2ccccc2[nH]1 (relative stereo) [Example 16, rac-(1R*,2R*,4R*)-2-(2-{[3-(1H-Benzoimidazol-2-yl)-propyl]-methyl-amino}-ethyl)-6-methyl-5-propyl-bicyclo[2.2.2]oct-5-en-2-ol]
13 | > 10 | CN(CCCc1cnc2occc2c1)CC[C@]1(O)C[C@H]2CC[C@@H]1C=C2c1ccccc1 (relative stereo) [Example 41, rac-(1R*,2R*,4R*)-2-{2-[(3-Furo[2,3-b]pyridin-5-yl-propyl)-methyl-amino]-ethyl}-5-phenyl-bicyclo[2.2.2]oct-5-en-2-ol]
14 | 8.6 | CC(C)C(=O)O[C@]1(CCN(C)CCCc2nc3ccccc3[nH]2)C[C@@H]2CC[C@H]1CN2c1ccccc1 [Example 74A, Isobutyric acid (1S,4S,5R)-5-(2-{[3-(1H-benzoimidazol-2-yl)-propyl]-methyl-amino}-ethyl)-2-phenyl-2-aza-bicyclo[2.2.2]oct-5-yl ester]
15 | 6.07 | CN(CCCc1nc2ccccc2[nH]1)CC[C@@]1(O)C[C@@H]2CC[C@H]1CN2c1ccccc1 [Example 74, (1S,4S,5R)-5-(2-{[3-(1H-Benzoimidazol-2-yl)-propyl]-methyl-amino}-ethyl)-2-phenyl-2-aza-bicyclo[2.2.2]octan-5-ol]
16 | 1.78 | CC(C)C(=O)O[C@@]1(CCN(C)CCCc2nc3ccccc3[nH]2)C[C@@H]2C=C[C@H]1CC2 (relative stereo) [Example 75A, rac-Isobutyric acid (1R*,2R*,4R*)-2-(2-{[3-(1H-benzoimidazol-2-yl)-propyl]-methyl-amino}-ethyl)-bicyclo[2.2.2]oct-5-en-2-yl ester]
17 | 6.7 | CCOc1ccc(CCN(CC)CC[C@]2(O)C[C@H]3CC[C@@H]2C=C3c2ccccc2)cc1OCC (relative stereo) [Example 38, rac-(1R*,2R*,4R*)-2-(2-{[2-(3,4-Diethoxy-phenyl)-ethyl]-ethyl-amino}-ethyl)-5-phenyl-bicyclo[2.2.2]oct-5-en-2-ol]
18 | 1.71 | COC(=O)c1cccc2[nH]c(CCCN(C)CC[C@]3(OC(=O)C(C)C)C[C@H]4CC[C@@H]3C=C4c3ccccc3)nc12 (relative stereo) [Example 19A, rac-2-(3-{[2-((1R*,2R*,4R*)-2-Isobutyryloxy-5-phenyl-bicyclo[2.2.2]oct-5-en-2-yl)-ethyl]-methyl-amino}-propyl)-1H-benzoimidazole-4-carboxylic acid methyl ester]
19 | 1.14 | COc1cccc2[nH]c(CCCN(C)CCC3(OC(=O)C(C)C)CC4CCC3C=C4c3ccccc3)nc12 [Example 54A, Isobutyric acid (1R,2R,4R)-2-(2-{[3-(4-methoxy-1H-benzoimidazol-2-yl)-propyl]-methyl-amino}-ethyl)-5-phenyl-bicyclo[2.2.2]oct-5-en-2-yl ester or isobutyric acid (1S,2S,4S)-2-(2-{[3-(4-methoxy-1H-benzoimidazol-2-yl)-propyl]-methyl-amino}-ethyl)-5-phenyl-bicyclo[2.2.2]oct-5-en-2-yl ester]
20 | 2.75 | CC(C)C(=O)O[C@@]1(CCN(C)CCCc2nc3ccccc3[nH]2)C[C@H]2CC[C@@H]1C=C2c1nccs1 (relative stereo) [Example 24A, rac-Isobutyric acid (1R*,2R*,4R*)-2-(2-{[3-(1H-benzoimidazol-2-yl)-propyl]-methyl-amino}-ethyl)-5-thiazol-2-yl-bicyclo[2.2.2]oct-5-en-2-yl ester]
21 | 0.906 | COCC(C)(COC)C(=O)N(C)CCCN(C)CC[C@@]1(OC(=O)C(C)C)C[C@H]2CC[C@@H]1C(c1ccccc1)=C2C (relative stereo) [Example 53C, rac-Isobutyric acid (1R*,2S*,4R*)-2-[2-({3-[(3-methoxy-2-methoxymethyl-2-methyl-propionyl)-methyl-amino]-propyl}-methyl-amino)-ethyl]-5-methyl-6-phenyl-bicyclo[2.2.2]oct-5-en-2-yl ester]
